This note sets out measurements from the supplement of paper PMC11061612.

One test has as its system 769-P (Kidney Carcinoma). Nature of the test: Bliss excess, mean over the matrix (fraction); higher = more synergy. Summed up:
(§1)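 Cell lines grown in DMEM/F12 or RPMI with 10% FBS were plated in 1536-well plates and held 24 hours at 37°C, 5% CO2 before 72 hours of exposure to two-drug dose matrices, with DMSO typically at 0.2%. CellTiter-Glo 2.0 luminescence gave viability, which was converted to inhibition. Vehicle wells were set to 0 and blank wells to 1. Combination Emax is the second-highest inhibition in the matrix, and Bliss excess is the observed combination effect minus the expected EA + EB − EA·EB, where EA and EB are the single-agent effects.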

The subject of test [1] is KYSE-220 (Esophageal Squamous Cell Carcinoma). The description is as above. Summed up:
as §1

The subject of test [2] is CAL-27 (Oral Cavity Carcinoma). The description is as above. Put shortly:
as §1

Test [3] deals with NCI-H1651 (Lung Adenocarcinoma). The description is as above. Summed up: as §1
A further test has as its system HCC70 (Breast Carcinoma). Described as above. Put shortly: as §1
The subject of test [4] is JHH-2 (Hepatocellular Carcinoma). The test is described as above. Summed up: as §1
In test [5] the test system is HCC1428 (Breast Carcinoma). Described as above. Put shortly:
as §1

In the next test the test system is EW-7 (Ewing's Sarcoma). The description is as above. Put shortly: as §1
In test [6] the test system is NCI-H716 (Colorectal Carcinoma). Described as above. Summed up:
as §1

For the next test, the system named is IM-9 (Non-Cancerous). Described as above. Summed up:
as §1

The next test has as its system EB2 (Burkitt's Lymphoma). The description is as above. Put shortly: as §1
The test system of a further test is EW-16 (Ewing's Sarcoma). Described as above. Put shortly:
as §1

For test [7], the system named is JIMT-1 (Breast Carcinoma). The test is described as above. Summed up: as §1
In test [8] the test system is EPLC-272H (Other Solid Carcinomas). The description is as above. Summed up: as §1
For test [9], the system named is DU-4475 (Breast Carcinoma). The test is described as above. Put shortly: as §1
The subject of the next test is WM1552C (Melanoma). Nature of the test: combination Emax (second highest fraction inhibited in the dose matrix, 72 h); higher = more inhibition; extreme values may be limits of the assay. Put shortly: as §1
The test system of test [10] is HT55 (Colorectal Carcinoma). Described as above. Put shortly:
as §1

In test [11] the test system is ESO26 (Esophageal Adenocarcinoma). The test is described as above. Summed up:
as §1

Test [12] relates to HCC1395 (Breast Carcinoma). The test is described as above. Summed up:
as §1

Test [13] has as its system LS-411N (Colorectal Carcinoma). The test is described as above. Summed up:
as §1

Structures are written as SMILES.
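For Bliss excess, mean over the matrix in this document: after 72 h of two-drug dosing.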

As for `CC1(C)CCC(CN2CCN(c3ccc(C(=O)NS(=O)(=O)c4ccc(NCC5CCOCC5)c([N+](=O)[O-])c4)c(Oc4cnc5[nH]ccc5c4)c3)CC2)=C(c2ccc(Cl)cc2)C1` [Venetoclax] + CCN(CCO)CCCOc1ccc2c(Nc3cc(CC(=O)Nc4cccc(F)c4)[nH]n3)ncnc2c1 [AZD2811] (first compound max 1 µM, 7x7, partner max 1 µM), the Bliss excess with 769-P (Kidney Carcinoma) was -0.0637; in test [1], 0.0335; in test [2], -0.0302; in [3] it was 0.0011; with HCC70 (Breast Carcinoma) it was -0.0223; in [4], -0.038. Moreover, the Bliss excess in [5] was 0.118; in the test on EW-7 (Ewing's Sarcoma), -0.0227; in test [6], -0.0813; with IM-9 (Non-Cancerous), 0.0275; with EB2 (Burkitt's Lymphoma) it was -0.0357; in the test on EW-16 (Ewing's Sarcoma), 0.0619. In addition, the Bliss excess is -0.0232 in test [7], 0.0409 in [8] and 0.0087 in test [9]. In addition, the “combination Emax” value in the test with WM1552C (Melanoma) amounted to 0.464; in [10], 0.235; in test [11] it was 0.126; in [12] it was 0.639; in [13], 0.0756.
As to `CC1(C)CCC(CN2CCN(c3ccc(C(=O)NS(=O)(=O)c4ccc(NCC5CCOCC5)c([N+](=O)[O-])c4)c(Oc4cnc5[nH]ccc5c4)c3)CC2)=C(c2ccc(Cl)cc2)C1` [Venetoclax] + CN(C)CCCOc1ccc(-c2ccc3ncc4c(c3c2)n(C2CCOCC2)c(=O)n4C)cn1 [AZD0156] (first compound max 1 µM, 7x7, partner max 1 µM), the Bliss excess with 769-P (Kidney Carcinoma) was -0.0276; in [1] it was -0.0135; in test [2], 0.0065; in test [3] it was -0.0174; in the test on HCC70 (Breast Carcinoma), -0.0057; in test [4], -0.028. The Bliss excess in [5] is 0.0145; in the test with EW-7 (Ewing's Sarcoma), -0.007; in test [6], -0.0272; in the test with IM-9 (Non-Cancerous), 0.0254; in the test on EB2 (Burkitt's Lymphoma) it was 0.0106; with EW-16 (Ewing's Sarcoma), -0.0659. Moreover, the values for the Bliss excess in [7], in [8] and in [9] were -0.0819, -0.0501 and -0.0158, respectively. Moreover, the “combination Emax” value amounted to 0.562 in the test on WM1552C (Melanoma); 0.173 in [10]; 0.0967 in [11]; 0.685 in test [12]; 0.118 in test [13].
Turning to `CC1(C)CCC(CN2CCN(c3ccc(C(=O)NS(=O)(=O)c4ccc(NCC5CCOCC5)c([N+](=O)[O-])c4)c(Oc4cnc5[nH]ccc5c4)c3)CC2)=C(c2ccc(Cl)cc2)C1` [Venetoclax] + COc1cc(Nc2ncc3c(n2)-c2ccc(Cl)cc2C(c2c(F)cccc2OC)=NC3)ccc1C(=O)O [Alisertib] (first compound max 1 µM, 7x7, partner max 10 µM), the Bliss excess in the test with 769-P (Kidney Carcinoma) was 0.0339; in test [1] it was -0.0305; in test [2], -0.0088; in [3], 0.0211; in the test on HCC70 (Breast Carcinoma), 0.0437; in test [4] it was -0.0018. Also, the Bliss excess in test [5] was 0.0554; in the test with EW-7 (Ewing's Sarcoma), 0.0262; in test [6], -0.0203; in the test with IM-9 (Non-Cancerous), 0.043; in the test with EB2 (Burkitt's Lymphoma) it was 0.13; in the test with EW-16 (Ewing's Sarcoma) it was 0.0541. In addition, the Bliss excess is -0.0247 in test [7], 0.0442 in [8] and 0.0933 in test [9]. Besides, the “combination Emax” value was determined as 0.508 in the test on WM1552C (Melanoma); 0.347 in test [10]; 0.198 in test [11]; 0.688 in test [12]; 0.0718 in test [13].
Consider `CC1(C)CCC(CN2CCN(c3ccc(C(=O)NS(=O)(=O)c4ccc(NCC5CCOCC5)c([N+](=O)[O-])c4)c(Oc4cnc5[nH]ccc5c4)c3)CC2)=C(c2ccc(Cl)cc2)C1` [Venetoclax] + C[C@@H]1COCCN1C2=NC(=NC(=C2)C3(CC3)[S@](=N)(=O)C)C4=C5C=CNC5=NC=C4 [AZD6738] (first compound max 1 µM, 7x7, partner max 10 µM), for which the Bliss excess in the test on 769-P (Kidney Carcinoma) is -0.0067; in test [1], -0.0398; in [2] it was -0.0559; in test [3] it was -0.0123; with HCC70 (Breast Carcinoma), -0.0528; in test [4] it was -0.019. For the same molecule, the Bliss excess is -0.0137 in test [5]; -0.037 with EW-7 (Ewing's Sarcoma); -0.0015 in test [6]; 0.0201 with IM-9 (Non-Cancerous); -0.035 in the test with EB2 (Burkitt's Lymphoma); -0.0607 in the test on EW-16 (Ewing's Sarcoma). Besides, the Bliss excess in [7] was -0.0643; in test [8], -0.0233; in test [9], 0.0062. For the same molecule, the “combination Emax” value in the test on WM1552C (Melanoma) stood at 0.617; in test [10], 0.58; in test [11], 0.508; in test [12], 0.771; in [13], 0.736.
In the case of `CC1(C)CCC(CN2CCN(c3ccc(C(=O)NS(=O)(=O)c4ccc(NCC5CCOCC5)c([N+](=O)[O-])c4)c(Oc4cnc5[nH]ccc5c4)c3)CC2)=C(c2ccc(Cl)cc2)C1` [Venetoclax] + C[C@@H](Nc1cc(F)cc(F)c1)c1cc(C(=O)N(C)C)cc2c(=O)cc(N3CCOCC3)oc12 [AZD8186] (first compound max 1 µM, 7x7, partner max 3 µM), the Bliss excess in the test on 769-P (Kidney Carcinoma) is 0.049; in [1], -0.0332; in test [2] it was -0.0361; in [3] it was -0.0212; with HCC70 (Breast Carcinoma) it was 0.0376; in test [4], 0.0003. For the same molecule, the Bliss excess in test [5] is -0.0147; in the test on EW-7 (Ewing's Sarcoma) it was 0.0048; in [6] it was -0.047; in the test on IM-9 (Non-Cancerous), -0.0608; in the test on EB2 (Burkitt's Lymphoma), 0.0231; in the test with EW-16 (Ewing's Sarcoma), -0.0278. The values for the Bliss excess in test [7], in test [8] and in [9] were -0.0411, 0.0111 and -0.0202, respectively. Also, the “combination Emax” value with WM1552C (Melanoma) came to 0.365; in test [10], 0.14; in [11] it was 0.0996; in test [12] it was 0.701; in test [13] it was 0.343.
Take `CC1(C)CCC(CN2CCN(c3ccc(C(=O)NS(=O)(=O)c4ccc(NCC5CCOCC5)c([N+](=O)[O-])c4)c(Oc4cnc5[nH]ccc5c4)c3)CC2)=C(c2ccc(Cl)cc2)C1` [Venetoclax] + Cc1cc2ncnn2cc1Nc1ncc2c(n1)n(C1CCOCC1)c(=O)n2C [AZD7648] (first compound max 1 µM, 7x7, partner max 10 µM): the Bliss excess in the test with 769-P (Kidney Carcinoma) is -0.0087; in test [1], -0.0371; in test [2] it was 0.0079; in [3], -0.0342; with HCC70 (Breast Carcinoma) it was -0.0423; in test [4] it was -0.069. Moreover, the Bliss excess is -0.006 in test [5]; -0.0345 with EW-7 (Ewing's Sarcoma); -0.0146 in [6]; 0.0403 in the test on IM-9 (Non-Cancerous); -0.0338 in the test with EB2 (Burkitt's Lymphoma); -0.0534 in the test on EW-16 (Ewing's Sarcoma). The Bliss excess in [7] is -0.0248; in test [8] it was -0.0656; in test [9], 0.0152. For the same molecule, the “combination Emax” value in the test on WM1552C (Melanoma) turned out to be 0.444; in test [10], 0.205; in test [11], 0.134; in test [12], 0.654; in test [13], 0.107.
As for `CC1(C)CCC(CN2CCN(c3ccc(C(=O)NS(=O)(=O)c4ccc(NCC5CCOCC5)c([N+](=O)[O-])c4)c(Oc4cnc5[nH]ccc5c4)c3)CC2)=C(c2ccc(Cl)cc2)C1` [Venetoclax] + Cn1cnc2c(F)c(Nc3ccc(Br)cc3Cl)c(C(=O)NOCCO)cc21 [Selumetinib] (first compound max 1 µM, 7x7, partner max 3 µM), the Bliss excess in the test with 769-P (Kidney Carcinoma) is -0.004; in test [1], 0.0102; in test [2], -0.0087; in test [3] it was -0.0367; with HCC70 (Breast Carcinoma) it was 0.0707; in test [4], 0.016. For the same molecule, the Bliss excess in test [5] was -0.026; with EW-7 (Ewing's Sarcoma), -0.0058; in test [6], -0.0814; with IM-9 (Non-Cancerous), 0.111; in the test on EB2 (Burkitt's Lymphoma), 0.0012; in the test on EW-16 (Ewing's Sarcoma), -0.0561. Moreover, the Bliss excess was -0.0429 in test [7], -0.0184 in test [8] and -0.0057 in [9]. The “combination Emax” value in the test on WM1552C (Melanoma) came out at 0.488; in [10], 0.728; in [11] it was 0.137; in test [12] it was 0.693; in [13], 0.526.
